{"source": "patent US20050064382A1", "about": "“Method of prevention of lysosomal leakage in eukaryotic cells by using 6-methyluracil based water-soluble compounds and method of producing thereof” (priority 2002, published 2005)", "key": {"THP-1 cells": {"tested_on": "THP-1 cells", "assay": "Long-term growth of THP-1 cells without change of medium (starvation)", "format": "cell-based, human"}, "[1]": {"tested_on": "ATT-20 cells (anterior lobe of the pituitary gland, corticotrophs)", "assay": "Storage of ATT-20 cells at low temperature, viability by well bottom coverage", "format": "cell-based", "details": "10% Glycerol", "description": "The goal of the study was to assess the influence of Glucural on cell recovery of different mammalian cells suspended in various cryo-protectors. A single layer of the rat thyroid-derived cell line FRTL-5 was grown in VPF-12 medium containing 10% calf serum (C.S.) in Petri dishes (10 cm) stored in an environment of 5% CO2, 100% humidity and at 37° C. Cell coverage on the Petri dish bottom reached 80-90% over 6-8 days. A single-layer cell culture of the cell line from the anterior lobe of the pituitary gland (corticotrophs) of ATT-20 was grown in similar fashion but in D-MEM medium containing 10% C.S.\nAfter exposure, cell suspensions were melted quickly in aliquots with cell suspension equal to 0.2 or 0.4 ml per well. The growing period varied depending on conditions of cell storage. All trials were performed in duplicate. Cell viability was estimated by the percentage of the well bottom covered by cells.\nThe same method was used here as in tests with MEL cells. Cryo-protectors used were not optimal for FRTL-5 and ATT-20 cells. Conditions of freezing were not optimal in assays # 1, 5 and 6."}, "[2]": {"details": "standard tests by Dr. Kirk Sperber, unpublished data; cited from earlier work"}, "[3]": {"tested_on": "skeletal (rear leg) muscle homogenates", "assay": "Proteolytic index of muscle homogenates (autoproteolysis, Ninhidrin)", "format": "biochemical, rat", "description": "In-vitro tests were performed on the skeletal (rear leg) muscles of 17 white laboratory rats. Preliminary research efforts determined 1) the preparation method for muscle homogenates, 2) estimation of level of the proteolytic activity by measuring for the concentration of free amino acids, a result of protein cleavage, and 3) the optimal time of authoproteolysis.\nThe preparation of muscle homogenates. Efforts were made to disassemble the muscle tissue gently, without disruption of the lysosomes, though with sufficient strength to ensure a homogeneous suspension of muscle cells in physiological solution (PBS). Potter's homogenator was used with a glass barrel and a Teflon pestle. Determination of the optimal treatment was based on experimental data and the activity of the proteases during the incubation of the homogenates at 37° C. If lysosomes were damaged during preparation of the homogenates, then there was no increase in concentration of free amino acids during incubation. Undamaged lysosomes in the homogenate would continue their proteolytic activity during incubation. For the best preparation of the homogenate, the muscles were separated from the connecting tissue, weighed and cut up with scissors in a Petri dish for 10 minutes. […]\nAfter the incubation of samples, the protein concentration was estimated by the standard Bio-Rad method. To estimate proteolytic activity based on the concentration of free amino acids found in the sample, three methods were tried: 1) absorbance at 280 nm, 2) concentration of amino acid tyrosine by estimation with Folin reagent, and 3) concentration of end amino groups with Ninhidrin reagent. Only method 3 provided accurate results, so the proteolytic index was measured based on the Ninhidrin reagent. […] Samples were boiled in a water bath for 10 minutes, chilled and the absorbance at 560 nm was measured. […] Concentrations of free amino acids and protein in mg/ml could therefore be determined for both cases. The ratio of free amino acids per proteins in the sample was calculated as the proteolytic index. […]"}, "[4]": {"tested_on": "immortal human monocytes (THP-1 cells)", "assay": "Short-term growth of THP-1 cells in 10% DMSO (trypan-blue test)", "format": "cell-based", "description": "Percentage of dead cells (trypan-blue test) and concentrations of live cells (×1,000,000 cells/ml) were determined. The growth medium was RPMI 1640 with fetal serum and other supplements."}, "Intact MEL cells": {"tested_on": "Intact MEL cells", "assay": "Cell toxicity of Glucural in intact conditions: growth of MEL", "format": "cell-based, mouse", "details": "for number of cells per ml, Regular conditions: 24 hours"}, "[5]": {"tested_on": "Human umbilical cord vein endothelial cells (HUCVEC)", "assay": "HUCVEC Assay 1: enzymatic and mechanical damage", "format": "cell-based", "details": "after 7 days, without change of medium", "description": "Glucural was also tested on two primer cell cultures for protection against cell death in sub-optimal conditions.\nHuman umbilical cord vein endothelial cells (HUCVEC) were isolated from freshly obtained human umbilical cords in accordance with known methods. HUCVEC were grown in multi-well plates. After saturation of the wells, the assays were initiated. Four wells were used for each experimental group. To cause “mechanical” damage, a higher (2-2½ times) centrifugal speed was used to pick up cells after trypsin treatment. To cause enzymatic damage, full-strength trypsin solution was used instead of the recommended diluted concentration. All assays were started from the last change of medium in wells with saturated cell culture (well bottoms were covered completely by cells). Results were estimated from the percentage of the bottom covered by cells on the last day of the assay.\nAssay 1. Enzymatic and mechanical damage to cells: Growth after 7 days, without change of medium."}, "[6]": {"details": "10% DMSO plus Glucural 10 mkg/ml, 4.5 hrs"}, "[7]": {"details": "10% DMSO plus Glucural 10 mkg/ml, 24 hrs"}, "[8]": {"details": "10% DMSO plus Glucural 20 mkg/ml, 4.5 hrs"}, "[9]": {"details": "10% DMSO plus Glucural 20 mkg/ml, 24 hrs"}, "[10]": {"details": "10% DMSO plus Glucural 50 mkg/ml, 4.5 hrs"}, "[11]": {"details": "10% DMSO plus Glucural 50 mkg/ml, 24 hrs"}}, "data": [{"substance": "complex of 2,4-dihydroxy-6-methylpyrimidine with N-methyl-D-glucamine [Glucural]", "values": [{"measurement": "percentage of dead cells (trypan blue test)", "setting": "THP-1 cells; Glucural 10 mkg/ml, 3 days of growing", "value": "2.1 ± 0.5", "unit": "%"}, {"measurement": "percentage of dead cells (trypan blue test)", "setting": "THP-1 cells; Glucural 10 mkg/ml, 4 days of growing", "value": "7.2 ± 1.3", "unit": "%"}, {"measurement": "percentage of dead cells (trypan blue test)", "setting": "THP-1 cells; Glucural 10 mkg/ml, 10 days of growing", "value": "10.7 ± 0.2", "unit": "%"}, {"measurement": "percentage of dead cells (trypan blue test)", "setting": "THP-1 cells; Glucural 10 mkg/ml, 14 days of growing", "value": "15.3 ± 0.2", "unit": "%"}, {"measurement": "percentage of dead cells (trypan blue test)", "setting": "THP-1 cells; Glucural 20 mkg/ml, 3 days of growing", "value": "5.5 ± 0.25", "unit": "%"}, {"measurement": "percentage of dead cells (trypan blue test)", "setting": "THP-1 cells; Glucural 20 mkg/ml, 4 days of growing", "value": 0, "unit": "%"}, {"measurement": "percentage of dead cells (trypan blue test)", "setting": "THP-1 cells; Glucural 20 mkg/ml, 10 days of growing", "value": "10.85 ± 0.35", "unit": "%"}, {"measurement": "percentage of dead cells (trypan blue test)", "setting": "THP-1 cells; Glucural 20 mkg/ml, 14 days of growing", "value": "15.3 ± 0.5", "unit": "%"}, {"measurement": "Percentage of well bottom covered by cells", "setting": "[1]; #4 AtT-20 (3 days), −190° C., Glucural 50 mg/ml", "value": "50-60%"}, {"measurement": "Percentage of well bottom covered by cells", "setting": "[1]; #4 AtT-20 (3 days), −190° C., Glucural 100 mg/ml", "value": "80-90%"}, {"measurement": "Percentage of well bottom covered by cells", "setting": "[1]; #5 AtT-20 (44 days), −70° C., Glucural 100 mg/ml", "value": "40-50%"}, {"measurement": "Percentage of well bottom covered by cells", "setting": "[1]; #5 AtT-20 (44 days), −70° C., Glucural 200 mg/ml", "value": "30-40%"}, {"measurement": "Percentage of well bottom covered by cells", "setting": "[1]; #6 AtT-20 (46 days), −70° C., additional melting freezing, Glucural 100 mg/ml", "value": "20-30%"}, {"measurement": "Percentage of well bottom covered by cells", "setting": "[1]; #6 AtT-20 (46 days), −70° C., additional melting freezing, Glucural 200 mg/ml", "value": "10-20%"}, {"measurement": "anti-inflammatory action compared with thalidomide", "setting": "[2]", "value": "equal anti-inflammatory action as thalidomide"}, {"measurement": "decrease of proteolytic activity in muscles", "setting": "[3]; Glucural 50 mkg/ml (Group 4)", "value": 36, "unit": "%"}, {"measurement": "decrease of proteolytic activity in muscles", "setting": "[3]; Glucural 100 mkg/ml (Group 5)", "value": 51, "unit": "%"}, {"measurement": "reduction of autoproteolysis", "setting": "[3]; Glucural less than 50 mkg/ml", "value": "not sufficient to reduce autoproteolysis"}, {"measurement": "Percentage of dead cells (trypan-blue test)", "setting": "[4]; [6]", "value": "13.3 ± 1.3", "unit": "%"}, {"measurement": "concentrations of live cells", "setting": "[4]; [6]", "value": "1.06 ± 0.08 ×1,000,000 cells/ml"}, {"measurement": "Percentage of dead cells (trypan-blue test)", "setting": "[4]; [7]", "value": "40.5 ± 0.5", "unit": "%"}, {"measurement": "concentrations of live cells", "setting": "[4]; [7]", "value": "2.21 ± 0.26 ×1,000,000 cells/ml"}, {"measurement": "Percentage of dead cells (trypan-blue test)", "setting": "[4]; [8]", "value": "2.6 ± 2.0", "unit": "%"}, {"measurement": "concentrations of live cells", "setting": "[4]; [8]", "value": "0.52 ± 0.05 ×1,000,000 cells/ml"}, {"measurement": "Percentage of dead cells (trypan-blue test)", "setting": "[4]; [9]", "value": "36.1 ± 0.75", "unit": "%"}, {"measurement": "concentrations of live cells", "setting": "[4]; [9]", "value": "0.86 ± 0.04 ×1,000,000 cells/ml"}, {"measurement": "Percentage of dead cells (trypan-blue test)", "setting": "[4]; [10]", "value": "17.2 ± 0.4", "unit": "%"}, {"measurement": "concentrations of live cells", "setting": "[4]; [10]", "value": "0.65 ± 0.03 ×1,000,000 cells/ml"}, {"measurement": "Percentage of dead cells (trypan-blue test)", "setting": "[4]; [11]", "value": "39.5 ± 1.1", "unit": "%"}, {"measurement": "concentrations of live cells", "setting": "[4]; [11]", "value": "1.31 ± 0.02 ×1,000,000 cells/ml"}, {"measurement": "number of cells per ml, Regular conditions", "setting": "Intact MEL cells; Glucural 25 mkg/ml", "value": "67 ± 1 x 10^4"}, {"measurement": "number of cells per ml, Regular conditions", "setting": "Intact MEL cells; Glucural 50 mkg/ml", "value": "68 ± 1 x 10^4"}, {"measurement": "number of cells per ml, Regular conditions", "setting": "Intact MEL cells; Glucural 100 mkg/ml", "value": "71 ± 2 x 10^4"}, {"measurement": "number of cells per ml, Regular conditions", "setting": "Intact MEL cells; Glucural 200 mkg/ml", "value": "58 ± 3 x 10^4"}, {"measurement": "number of cells per ml, Regular conditions", "setting": "Intact MEL cells; Glucural 400 mkg/ml", "value": "69 ± 5 x 10^4"}, {"measurement": "influence on cells in regular conditions", "setting": "Intact MEL cells; Glucural from 25 to 400 mkg/ml", "value": "no influence"}, {"measurement": "Percent of well-bottom covered by cells", "setting": "[5]; Glucural 40 mkg/ml", "value": "2-5%"}, {"measurement": "Percent of well-bottom covered by cells", "setting": "[5]; Glucural 400 mkg/ml", "value": "70-80%"}]}]}
